Data on 18 compounds can be found in US11414416B1, “Compounds and uses thereof” (Foghorn Therapeutics Inc., priority 2019, dated 2022).

Bounds are passed on as bounds.

Test [1] relates to synovial sarcoma cell lines (SYO1, Yamato, HS-SY-II, and ASKA). The experiment in a line: Growth of synovial sarcoma cell lines (confluency, crystal violet, colonies; Example 3). The format is cell-based. Particulars: FIGS. 5-7, 1 μM in crystal violet assay. How it is done: (§1) Cells were treated with DMSO or the BRD9 degrader, Compound 1, at indicated concentrations, and proliferation was monitored from day 7 to day 14 by measuring confluency over time using an IncuCyte live cell analysis system (FIG. 5). Growth medium and compounds were refreshed every 3-4 days.
(§2) Cells were seeded into 12-well plates and treated with DMSO, 1 μM BRD9 inhibitor, Compound 2 (also known as BI-7273, see Martin et al, J Med Chem. 59(10):4462-4475 (2016); see structure of Compound 2 below), or 1 μM BRD9 degrader, Compound 1.
(§3) The number of cells was optimized for each cell line. Growth medium and compounds were refreshed every 3-5 days. SYO1, Yamato, A549, 293T and HS-SY-II cells were fixed and stained at day 11. ASKA cells were fixed and stained at day 23. Staining was done by incubation with crystal violet solution (0.5 g Crystal Violet, 27 ml 37% Formaldehyde, 100 mL 10×PBS, 10 mL Methanol, 863 dH20 to 1 L) for 30 min followed by 3× washes with water and drying the plates for at least 24 h at room temperature. Subsequently plates were scanned on an Odyssey CLx Imaging system (FIG. 6).
(§4) Cells were seeded into 96-well ultra low cluster plate (Costar, #7007) in 200 μL complete media and treated at day 2 with DMSO, Staurosporin, or BRD9 degarder, Compound 1, at indicated doses (FIG. 7). Media and compounds were changed every 5 d and cell colonies were imaged at day 14.

Test [2] has as its system non-synovial control cancer cell lines (293T, A549, G401). Nature of the test: Growth of non-synovial control cancer cell lines (Example 3). Particulars: FIGS. 5-7. Format: cell-based. As for the experimental part: as §1, §2, §3, §4
In test [3] the test system is synovial sarcoma cell lines (SYO1, HS-SY-II, and ASKA). Nature of the test: Growth of synovial sarcoma cell lines, crystal violet day 14 (Example 4). Particulars: SYO1, HS-SY-II, ASKA; treated daily, day 14, FIG. 8. Format: cell-based. As for the experimental part:
(§5) Procedure: Cells were seeded into 6-well or 12-well plates and were treated daily with a BRD9 degrader (Compound 1), a bromo-domain BRD9 binder (Compound 2), E3 ligase binder (lenalidomide), DMSO, or staurosporin (positive control for cell killing), at indicated concentrations. The number of cells was optimized for each cell line. Growth media was refreshed every 5 days. By day 14, medium was removed, cells were washed with PBS, and stained using 500 μL of 0.005% (w/v) crystal violet solution in 25% (v/v) methanol for at least 1 hour at room temperature. Subsequently plates were scanned on an Odyssey CLx Imaging system.

The test system of test [4] is non-synovial control cancer cell lines (RD, HCT116, and Calu6). The experiment in a line: Growth of non-synovial control cancer cell lines, crystal violet day 14 (Example 4). As to conditions: treated daily, day 14, FIG. 9. The format is cell-based. As for the experimental part:
as §5

A further test addresses BRD9 bromodomain (Homo sapiens (Human), UniProt Q9H8M2). The experiment in a line: BRD9 bromodomain TR-FRET competition binding assay. Particulars: Table 4; competition with biotinylated ligand, 3 nM Flag-BRD9, 90 minutes. In a few lines: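 TEV-cleaved Flag-BRD9 (P133-K239, 3 nM) competed against 3.75 nM biotinylated ligand, with 7.5 nM APC-streptavidin and 0.2 nM Eu-W1024 anti-FLAG, in HEPES pH 7.4, NaCl, TCEP, Tween-20, BSA. Compounds were serially diluted 3-fold; after 90 min at room temperature the 665/615 nm emission ratio was read.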

The target in test [5] is Nanoluciferase-BRD9 fusion protein (Homo sapiens (Human), UniProt Q9H8M2). Nature of the test: SYO1 BRD9 NanoLuc degradation assay. Format: cell-based. Particulars: Table 5A, SYO-1 cells expressing 3×FLAG-NLuc-BRD9, 6 hours; for DC50: read-out: SYO1 BRD9-NanoLuc degradation IC50. In a few lines:
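Degradation was read as loss of nanoluciferase signal (Nano-Glo) after 6 h compound exposure in a stable SYO-1 line carrying 3×FLAG-NLuc-BRD9 (8000 cells/well). Normalised between DMSO (high) and a 1 μM known BRD9 degrader (low).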

Sequence of BRD9 bromodomain (Q9H8M2 133-239): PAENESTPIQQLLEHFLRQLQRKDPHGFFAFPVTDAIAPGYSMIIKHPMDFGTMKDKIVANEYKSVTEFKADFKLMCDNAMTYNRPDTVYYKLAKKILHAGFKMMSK
Sequence of Nanoluciferase-BRD9 fusion protein (Q9H8M2 whole entry, the tested form may be a part): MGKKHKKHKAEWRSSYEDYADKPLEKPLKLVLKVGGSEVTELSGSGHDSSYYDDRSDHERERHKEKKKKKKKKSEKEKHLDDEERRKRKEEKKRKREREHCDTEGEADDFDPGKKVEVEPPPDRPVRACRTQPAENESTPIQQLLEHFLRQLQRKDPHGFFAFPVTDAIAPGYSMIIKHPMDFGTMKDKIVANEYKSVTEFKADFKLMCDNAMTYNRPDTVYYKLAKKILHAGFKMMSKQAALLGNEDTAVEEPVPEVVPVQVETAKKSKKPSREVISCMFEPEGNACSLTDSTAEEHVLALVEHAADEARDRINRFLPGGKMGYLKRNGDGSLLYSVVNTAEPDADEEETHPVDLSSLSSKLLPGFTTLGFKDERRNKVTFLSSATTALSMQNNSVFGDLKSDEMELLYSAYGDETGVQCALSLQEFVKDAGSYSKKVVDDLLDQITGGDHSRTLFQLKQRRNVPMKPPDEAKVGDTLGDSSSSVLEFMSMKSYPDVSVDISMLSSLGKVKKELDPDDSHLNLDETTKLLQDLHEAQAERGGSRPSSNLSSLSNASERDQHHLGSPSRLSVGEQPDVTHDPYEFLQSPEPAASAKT

As for `COc1cc(-c2cn(C)c(=O)c3cnccc23)cc(OC)c1CN(C)C` [Compound 2], the “inhibition of growth of synovial sarcoma cell lines” value in test [1] and in test [3] was “inhibition of the growth of the cells” in each case. Also, the “inhibition of growth of non-synovial control cancer cell lines” value is “does not result in inhibition of the growth” in test [2] and “did not result in inhibition of the growth” in test [4].
Regarding `COc1cc(-c2cn(C)c(=O)c3cnccc23)cc(OC)c1CN1CCN(C(=O)COc2cccc3c2C(=O)N(C2CCC(=O)NC2=O)C3=O)CC1` (centres unmarked) [Compound D37, 4-(2-(4-(2,6-dimethoxy-4-(2-methyl-1-oxo-1,2-dihydro-2,7-naphthyridin-4-yl)benzyl)piperazin-1-yl)-2-oxoethoxy)-2-(2,6-dioxopiperidin-3-yl)isoindoline-1,3-dione formic acid], the IC50 (at BRD9 bromodomain; in test [5]) was below 10 nM throughout.
In turn, `COc1cc(-c2cn(C)c(=O)c3cnccc23)cc(OC)c1CN1CC2(CC(NC(=O)CCOCCOc3ccc4c(c3)C(=O)N(C3CCC(=O)NC3=O)C4=O)C2)C1` (centres unmarked) [Compound D101] had an IC50 at BRD9 bromodomain below 10 nM. Further, the DC50 in test [5] is 100 to 1000 nM.
With `COc1cc(-c2cn(C)c(=O)c3cnccc23)cc(OC)c1CN1CC2(CCN(C(=O)CCOCCOc3cccc4c3C(=O)N(C3CCC(=O)NC3=O)C4=O)CC2)C1` (centres unmarked) [Compound D85], the figures for the IC50 (at BRD9 bromodomain; in test [5]) were 10 to 100 nM and 100 to 1000 nM, respectively.
As to `COc1cc(-c2cn(C)c(=O)c3cnccc23)cc(OC)c1CN1CC[C@H]1C(=O)NCCN(C)CCNC(=O)COc1ccc2c(c1)C(=O)N(C1CCC(=O)NC1=O)C2=O` (stereo partly drawn) [Compound D26, N-[2-[(2-[[(2S)-1-[[2,6-dimethoxy-4-(2-methyl-1-oxo-1,2-dihydro-2,7-naphthyridin-4-yl)phenyl]methyl]azetidin-2-yl]formamido]ethyl)(methyl)amino]ethyl]-2-[[2-(2,6-dioxopiperidin-3-yl)-1,3-dioxo-2,3-dihydro-1H-isoindol-5-yl]oxy]acetamide], the IC50 on BRD9 bromodomain is 10 to 100 nM; in test [5], above 1000 nM.
In turn, `COc1cc(-c2cn(C)c(=O)c3cnccc23)cc(OC)c1CN(C)C1CCC2CN(C(=O)CCOCCOc3cccc4c3C(=O)N(C3CCC(=O)NC3=O)C4=O)CC21` (centres unmarked) [Compound D161] gave an IC50 at BRD9 bromodomain below 10 nM. Further, in test [5], the DC50 lay in the range of 10 to 100 nM.
For the compound `COc1cc(-c2cn(C)c(=O)c3cnccc23)cc(OC)c1CN1CCC2(CCN(C(=O)CCOCCOc3cccc4c3C(=O)N(C3CCC(=O)NC3=O)C4=O)CC2)C1` (centres unmarked) [Compound D89], the IC50 (at BRD9 bromodomain; in test [5]) was below 10 nM throughout.
On BRD9 bromodomain, `COc1cc(-c2cn(C)c(=O)c3cnccc23)cc(OC)c1CN1CC(C)(C(=O)NCCCCCCCCNc2cccc3c2C(=O)N(C2CCC(=O)NC2=O)C3=O)C1` (centres unmarked) [Compound D13, 1-(2,6-dimethoxy-4-(2-methyl-1-oxo-1,2-dihydro-2,7-naphthyridin-4-yl)benzyl)-N-(8-((2-(2,6-dioxopiperidin-3-yl)-1,3-dioxoisoindolin-4-yl)amino)octyl)-3-methylazetidine-3-carboxamide] gave an IC50 below 10 nM. Further, the DC50 in test [5] was below 10 nM.
On BRD9 bromodomain, `COc1cc(-c2cn(C)c(=O)c3cnccc23)cc(OC)c1CN1CCC(C2CCN(C(=O)CCOCCOc3cccc4c3C(=O)N(C3CCC(=O)NC3=O)C4=O)C2)CC1` (centres unmarked) [Compound D96] yielded an IC50 below 10 nM. Further, in test [5], the DC50 fell in the range of 10 to 100 nM.
The matching figures for `COc1cc(-c2cn(C)c(=O)c3cnccc23)cc(OC)c1CN1CC(C(=O)NCCCCCCCCNc2cccc3c2C(=O)N(C2CCC(=O)N(C)C2=O)C3=O)C1` (centres unmarked) [Compound D8, 1-[[2,6-dimethoxy-4-(2-methyl-1-oxo-1,2-dihydro-2,7-naphthyridin-4-yl)phenyl]methyl]-N-(8-[[2-(1-methyl-2,6-dioxopiperidin-3-yl)-1,3-dioxo-2,3-dihydro-1H-isoindol-4-yl]amino]octyl)azetidine-3-carboxamide formic acid]: below 10 nM and above 1000 nM.
As to `COc1cc(-c2cn(C)c(=O)c3cnccc23)cc(OC)c1CN(C)C1CCC2CN(C(=O)CCOCCOc3ccc4c(c3)C(=O)N(C3CCC(=O)NC3=O)C4=O)CC21` (centres unmarked) [Compound D170], the IC50 on BRD9 bromodomain was 10 to 100 nM; in test [5] it was below 10 nM.
For `COc1cc(-c2cn(C)c(=O)c3cnccc23)cc(OC)c1CNCCOCC(=O)N1CC(COc2ccc3c(c2)C(=O)N(C2CCC(=O)NC2=O)C3=O)C1` (centres unmarked) [Compound D74, 5-[(1-[2-[2-([[2,6-dimethoxy-4-(2-methyl-1-oxo-2,7-naphthyridin-4-yl)phenyl]methyl]amino)ethoxy]acetyl]azetidin-3-yl)methoxy]-2-(2,6-dioxopiperidin-3-yl)isoindole-1,3-dione formic acid], the IC50 at BRD9 bromodomain is below 10 nM. Besides, in test [5], the DC50 was 100 to 1000 nM.
`COc1cc(-c2cn(C)c(=O)c3cnccc23)cc(OC)c1CN(C)C1CC2CN(C(=O)CCOCCOc3ccc4c(c3)C(=O)N(C3CCC(=O)NC3=O)C4=O)CC2C1` (centres unmarked) [Compound D169] had an IC50 at BRD9 bromodomain below 10 nM. In addition, in test [5], the DC50 was 10 to 100 nM.
Turning to `COc1cc(-c2cn(C)c(=O)c3cnccc23)cc(OC)c1CN(C)C12CC(C(=O)NCCCCCNc3cccc4c3C(=O)N(C3CCC(=O)NC3=O)C4=O)(C1)C2` (centres unmarked) [Compound D57, 3-([[2,6-dimethoxy-4-(2-methyl-1-oxo-2,7-naphthyridin-4-yl)phenyl]methyl](methyl)amino)-N-(5-[[2-(2,6-dioxopiperidin-3-yl)-1,3-dioxoisoindol-4-yl]amino]pentyl)bicyclo[1.1.1]pentane-1-carboxamide formic acid], the results for the IC50 (on BRD9 bromodomain; in test [5]) were 10 to 100 nM and below 10 nM, respectively.
In the case of `COc1cc(-c2cn(C)c(=O)c3cnccc23)cc(OC)c1CN(C)C12CC(NC(=O)CCOCCOCCNc3cccc4c3C(=O)N(C3CCC(=O)NC3=O)C4=O)(C1)C2` (centres unmarked) [Compound D59, N-[3-([[2,6-dimethoxy-4-(2-methyl-1-oxo-2,7-naphthyridin-4-yl)phenyl]methyl](methyl)amino)bicyclo[1.1.1]pentan-1-yl]-3-[2-(2-[[2-(2,6-dioxopiperidin-3-yl)-1,3-dioxoisoindol-4-yl]amino]ethoxy)ethoxy]propanamide formic acid], the IC50 (at BRD9 bromodomain; in test [5]) was below 10 nM each time.
For `COc1cc(-c2cn(C)c(=O)c3cnccc23)cc(OC)c1CN1CC(CCNC(=O)CCOCCOc2ccc3c(c2)C(=O)N(C2CCC(=O)NC2=O)C3=O)C1` (centres unmarked) [Compound D117], the IC50 on BRD9 bromodomain was below 10 nM. Besides, the DC50 in test [5] was in the range of 100 to 1000 nM.
Regarding `COc1cc(-c2cn(C)c(=O)c3cnccc23)cc(OC)c1CN1CC2(CCC2NC(=O)CCOCCOc2cccc3c2C(=O)N(C2CCC(=O)NC2=O)C3=O)C1` (centres unmarked) [Compound D84], the IC50 was 10 to 100 nM at BRD9 bromodomain and above 1000 nM in test [5].
As for `COc1cc(-c2cn(C)c(=O)c3cnccc23)cc(OC)c1CNCCCN1CC(Oc2ccc3c(c2)C(=O)N(C2CCC(=O)NC2=O)C3=O)C1` (centres unmarked) [Compound D31, 5-((1-(3-((2,6-dimethoxy-4-(2-methyl-1-oxo-1,2-dihydro-2,7-naphthyridin-4-yl)benzyl)amino)propyl)azetidin-3-yl)oxy)-2-(2,6-dioxopiperidin-3-yl)isoindoline-1,3-dione formic acid], the IC50 at BRD9 bromodomain was below 10 nM. The DC50 in test [5] was in the range of 10 to 100 nM.
